Laboratory results reported in US12668600B2 (Kumquat Biosciences Inc., priority 2023, dated 2026).

Legend:
Type in all cases: biochemical
[1] = molecular target: T1, KRAS G12S (Homo sapiens, UniProt P01116, G12S); test: HTRF KRAS-SOS1 interaction assay, KRAS G12S; conditions: binned ≤2 μM / >2 μM, read-out: Inhibition of KRAS G12S (IC50)
T1 construct: made in house; host or cells: E. coli, e.g. BL21 (DE3)
Method in brief: (§1)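 GST-KRAS + anti-GST-Eu; His-hSOS1 + anti-6His-XL665; cpd in DMSO, duplicate, 10–0.01 μM; ~10 min incubation; HTRF ex 337/em 620, 665 nm; IC50 fitted on 665/620 ratio.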

[2] = molecular target: T2, KRAS WT (Homo sapiens, UniProt P01116); test: HTRF KRAS-SOS1 interaction assay, wildtype KRAS; conditions: binned ≤2 μM / >2 μM, read-out: Inhibition of KRAS WT (IC50)
T2 construct: made in house; host or cells: E. coli, e.g. BL21 (DE3)
Method in brief: as §1

[3] = molecular target: T3, KRAS G12V (Homo sapiens, UniProt P01116, G12V); test: HTRF KRAS-SOS1 interaction assay, KRAS G12V; conditions: binned ≤2 μM / >2 μM, read-out: Inhibition of KRAS G12V (IC50)
T3 construct: made in house; host or cells: E. coli, e.g. BL21 (DE3)
Method in brief: as §1

[4] = molecular target: T4, KRAS G12D (Homo sapiens, UniProt P01116, G12D); test: HTRF KRAS-SOS1 interaction assay, KRAS G12D; conditions: binned ≤2 μM / >2 μM, read-out: Inhibition of KRAS G12D (IC50)
T4 construct: made in house; host or cells: E. coli, e.g. BL21 (DE3)
Method in brief: as §1

T4 sequence (P01116 1-188 isoform P01116-2 G12D): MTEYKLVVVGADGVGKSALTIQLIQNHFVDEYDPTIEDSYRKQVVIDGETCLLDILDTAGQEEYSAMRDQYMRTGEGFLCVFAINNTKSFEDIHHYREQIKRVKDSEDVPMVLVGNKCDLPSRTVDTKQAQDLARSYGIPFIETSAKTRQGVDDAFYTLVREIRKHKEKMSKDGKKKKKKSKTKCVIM
T1 sequence (P01116 1-188 isoform P01116-2 G12S): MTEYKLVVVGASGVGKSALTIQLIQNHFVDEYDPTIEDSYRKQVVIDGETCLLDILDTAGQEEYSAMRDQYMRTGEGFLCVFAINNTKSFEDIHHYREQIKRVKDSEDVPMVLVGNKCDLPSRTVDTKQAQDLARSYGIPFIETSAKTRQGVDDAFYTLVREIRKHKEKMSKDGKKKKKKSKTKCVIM
T3 sequence (P01116 1-188 isoform P01116-2 G12V): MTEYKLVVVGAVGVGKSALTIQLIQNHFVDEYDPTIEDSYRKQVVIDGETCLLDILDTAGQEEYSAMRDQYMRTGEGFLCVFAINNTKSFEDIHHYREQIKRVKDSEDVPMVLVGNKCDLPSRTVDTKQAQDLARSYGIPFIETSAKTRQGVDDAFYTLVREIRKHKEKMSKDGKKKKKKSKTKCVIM
T2 sequence (P01116 1-188 isoform P01116-2): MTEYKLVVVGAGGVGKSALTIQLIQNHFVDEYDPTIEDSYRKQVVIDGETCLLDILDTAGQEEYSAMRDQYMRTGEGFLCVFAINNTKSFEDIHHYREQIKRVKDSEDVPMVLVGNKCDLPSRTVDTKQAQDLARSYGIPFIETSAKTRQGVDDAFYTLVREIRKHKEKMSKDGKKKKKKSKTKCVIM

| IC50 [1] [nM] | IC50 [2] [nM] | IC50 [3] [nM] | IC50 [4] [nM] | SMILES |
| --- | --- | --- | --- | --- |
| ≤ 2000 | ≤ 2000 | ≤ 2000 | ≤ 2000 | C[C@H](c1cccnc1N)N1CCOc2c(C(F)(F)F)c(-c3ccc(F)c4sc(N)c(C#N)c34)c(F)c3nc(OC[C@@]45CCCN4CC(CN(C)C)C5)nc1c23 (mixture of isomers) [Compound 721, 2-amino-4-(4-((R)-1-(2-aminopyridin-3-yl)ethyl)-2-(((7aS)-2-((dimethylamino)methyl)tetrahydro-1H-pyrrolizin-7a(5H)-yl)methoxy)-10-fluoro-8-(trifluoromethyl)-5,6-dihydro-4H-[1,4]oxazepino[5,6,7-de]quinazolin-9-yl)-7-fluorobenzo[b]thiophene-3-carbonitrile] |
| ≤ 2000 | ≤ 2000 | ≤ 2000 | ≤ 2000 | C[C@H](c1cc(C(F)(F)F)cnc1N)N1CCOc2c(Cl)c(-c3ccc(F)c4sc(N)c(C#N)c34)c(F)c3nc(OC[C@@]45CCCN4C[C@H](F)C5)nc1c23 [Compound 869, 2-amino-4-(4-((R)-1-(2-amino-5-(trifluoromethyl)pyridin-3-yl)ethyl)-8-chloro-10-fluoro-2-(((2R,7aS)-2-fluorotetrahydro-1H-pyrrolizin-7a(5H)-yl)methoxy)-5,6-dihydro-4H-[1,4]oxazepino[5,6,7-de]quinazolin-9-yl)-7-fluorobenzo[b]thiophene-3-carbonitrile] |
| ≤ 2000 | ≤ 2000 | ≤ 2000 | ≤ 2000 | Cc1c(F)c(N)cc(-c2nc3c4c(nc(OC[C@@]56CCCN5C[C@H](F)C6)nc4c2F)N([C@H](C)c2cccnc2N)CCO3)c1C(F)(F)F (single isomer, unassigned) [Compound 765] |
| ≤ 2000 | ≤ 2000 | ≤ 2000 | ≤ 2000 | CC[S+]([O-])[C@@H]1C[C@]2(COc3nc4c5c(c(Cl)c(-c6ccc(F)c7sc(N)c(C#N)c67)c(F)c5n3)OCCN4[C@H](C)c3cccnc3N)CCC[N+]2([O-])C1 (mixture of isomers) [Compound 626, (2R,7aS)-7a-(((9-(2-amino-3-cyano-7-fluorobenzo[b]thiophen-4-yl)-4-((R)-1-(2-aminopyridin-3-yl)ethyl)-8-chloro-10-fluoro-5,6-dihydro-4H-[1,4]oxazepino[5,6,7-de]quinazolin-2-yl)oxy)methyl)-2-(ethylsulfinyl)hexahydropyrrolizine 4(1H)-oxide] |
| ≤ 2000 | ≤ 2000 | ≤ 2000 | ≤ 2000 | C[C@H](c1cncnc1N)N1CCOc2c(C(F)(F)F)c(-c3cccc4sc(N)c(C#N)c34)c(F)c3nc(OC[C@@]45CCCN4C[C@H](F)C5)nc1c23 (single isomer, unassigned) [Compound 723] |
| ≤ 2000 | ≤ 2000 | ≤ 2000 | ≤ 2000 | CC(=O)c1c(F)ccc2cc(O)cc(-c3nc4c5c(nc(OC[C@@H]6CCCN6C)nc5c3F)N(C(C)c3cccnc3N)CCO4)c12 (single isomer, unassigned) [Compound 750] |

Second part, the compound before the results:

| SMILES | IC50 [1] [nM] | IC50 [2] [nM] | IC50 [3] [nM] | IC50 [4] [nM] |
| --- | --- | --- | --- | --- |
| N#Cc1c(N)sc2c(F)ccc(-c3c(Cl)c4c5c(nc(OC[C@@]67CCCN6C[C@H](F)C7)nc5c3F)N([C@@H](c3cccnc3N)C(F)(F)F)CCO4)c12 [Compound 833, 2-amino-4-(4-((S)-1-(2-aminopyridin-3-yl)-2,2,2-trifluoroethyl)-8-chloro-10-fluoro-2-(((2R,7aS)-2-fluorotetrahydro-1H-pyrrolizin-7a(5H)-yl)methoxy)-5,6-dihydro-4H-[1,4]oxazepino[5,6,7-de]quinazolin-9-yl)-7-fluorobenzo[b]thiophene-3-carbonitrile] | ≤ 2000 | ≤ 2000 | ≤ 2000 | ≤ 2000 |
| C[C@H](c1cncnc1N)N1CCOc2c(C(F)(F)F)c(-c3ccc(F)c4sc(N)c(C#N)c34)c(F)c3nc(OCC4(CN5CCC(F)CC5)CC4)nc1c23 [Compound 908, 2-amino-4-(4-((R)-1-(4-aminopyrimidin-5-yl)ethyl)-10-fluoro-2-((1-((4-fluoropiperidin-1-yl)methyl)cyclopropyl)methoxy)-8-(trifluoromethyl)-5,6-dihydro-4H-[1,4]oxazepino[5,6,7-de]quinazolin-9-yl)-7-fluorobenzo[b]thiophene-3-carbonitrile] | ≤ 2000 | ≤ 2000 | ≤ 2000 | ≤ 2000 |
| C[C@H](c1cccnc1N)N1c2nc(OC[C@@]34CCCN3C[C@H](F)C4)nc3c(F)c(-c4ccc(F)c5sc(N)c(C#N)c45)c(Cl)c(c23)OC[C@@H]1C [Compound 800, 2-amino-4-((5S)-4-((R)-1-(2-aminopyridin-3-yl)ethyl)-8-chloro-10-fluoro-2-(((2R,7aS)-2-fluorotetrahydro-1H-pyrrolizin-7a(5H)-yl)methoxy)-5-methyl-5,6-dihydro-4H-[1,4]oxazepino[5,6,7-de]quinazolin-9-yl)-7-fluorobenzo[b]thiophene-3-carbonitrile] | ≤ 2000 | ≤ 2000 | ≤ 2000 | ≤ 2000 |
| N#Cc1c(N)sc2c(F)ccc(-c3c(C(F)(F)F)c4c5c(nc(OC[C@@]67CCCN6C[C@H](F)C7)nc5c3F)N([C@H](CCn3cccn3)c3cccnc3N)CCO4)c12 [Compound 829, 2-amino-4-(4-((R)-1-(2-aminopyridin-3-yl)-3-(1H-pyrazol-1-yl)propyl)-10-fluoro-2-(((2R,7aS)-2-fluorotetrahydro-1H-pyrrolizin-7a(5H)-yl)methoxy)-8-(trifluoromethyl)-5,6-dihydro-4H-[1,4]oxazepino[5,6,7-de]quinazolin-9-yl)-7-fluorobenzo[b]thiophene-3-carbonitrile] | ≤ 2000 | ≤ 2000 | ≤ 2000 | ≤ 2000 |
| C[C@@H]1COCCN1CC1(COc2nc3c4c(c(C(F)(F)F)c(-c5ccc(F)c6sc(N)c(C#N)c56)c(F)c4n2)OCCN3[C@H](C)c2cccnc2N)CC1 (single isomer, unassigned) [Compound 608] | ≤ 2000 | ≤ 2000 | ≤ 2000 | ≤ 2000 |
| C[C@H](c1cccnc1Cl)N1CCOc2c(C(F)(F)F)c(-c3ccc(F)c4sc(N)c(C#N)c34)c(F)c3nc(OC[C@@]45CCCN4C[C@H](F)C5)nc1c23 [Compound 730, 2-amino-4-(4-((R)-1-(2-chloropyridin-3-yl)ethyl)-10-fluoro-2-(((2R,7aS)-2-fluorotetrahydro-1H-pyrrolizin-7a(5H)-yl)methoxy)-8-(trifluoromethyl)-5,6-dihydro-4H-[1,4]oxazepino[5,6,7-de]quinazolin-9-yl)-7-fluorobenzo[b]thiophene-3-carbonitrile] | ≤ 2000 | ≤ 2000 | ≤ 2000 | ≤ 2000 |
| C[C@H](c1cc(F)cnc1N)N1CCOc2c(C(F)(F)F)c(-c3ccc(F)c4sc(N)c(C#N)c34)c(F)c3nc(OC[C@@]45CCCN4CC(=C(F)F)C5)nc1c23 [Compound 675, 2-amino-4-(4-((R)-1-(2-amino-5-fluoropyridin-3-yl)ethyl)-2-(((S)-2-(difluoromethylene)tetrahydro-1H-pyrrolizin-7a(5H)-yl)methoxy)-10-fluoro-8-(trifluoromethyl)-5,6-dihydro-4H-[1,4]oxazepino[5,6,7-de]quinazolin-9-yl)-7-fluorobenzo[b]thiophene-3-carbonitrile] | ≤ 2000 | ≤ 2000 | ≤ 2000 | ≤ 2000 |
| CO[C@H]1CCN(C)[C@@H]1[C@H](C)Oc1nc2c3c(c(C(F)(F)F)c(-c4ccc(F)c5sc(N)c(C#N)c45)c(F)c3n1)OCCN2[C@H](C)c1cc(Cl)cnc1N [Compound 667, 2-amino-4-(4-((R)-1-(2-amino-5-chloropyridin-3-yl)ethyl)-10-fluoro-2-((S)-1-((2R,3S)-3-methoxy-1-methylpyrrolidin-2-yl)ethoxy)-8-(trifluoromethyl)-5,6-dihydro-4H-[1,4]oxazepino[5,6,7-de]quinazolin-9-yl)-7-fluorobenzo[b]thiophene-3-carbonitrile] | ≤ 2000 | ≤ 2000 | ≤ 2000 | ≤ 2000 |
| C[C@H](c1cccnc1C(F)F)N1CCOc2c(C(F)(F)F)c(-c3ccc(F)c4sc(N)c(C#N)c34)c(F)c3nc(OC[C@@]45CCCN4C[C@H](F)C5)nc1c23 [Compound 747, 2-amino-4-(4-((R)-1-(2-(difluoromethyl)pyridin-3-yl)ethyl)-10-fluoro-2-(((2R,7aS)-2-fluorotetrahydro-1H-pyrrolizin-7a(5H)-yl)methoxy)-8-(trifluoromethyl)-5,6-dihydro-4H-[1,4]oxazepino[5,6,7-de]quinazolin-9-yl)-7-fluorobenzo[b]thiophene-3-carbonitrile] | ≤ 2000 | ≤ 2000 | ≤ 2000 | ≤ 2000 |
| N#Cc1c(N)sc2c(F)ccc(-c3c(C(F)(F)F)c4c5c(nc(OC[C@@]67CCCN6C[C@H](F)C7)nc5c3F)N([C@H](CCC3CCC3)c3cccnc3N)CCO4)c12 (single isomer, unassigned) [Compound 631] | ≤ 2000 | > 2000 | ≤ 2000 | > 2000 |
